In brackets after ≈: the same amount, converted by molar mass.
Legend:
[1] = Physical stability of solid forms (drying, storage, slurry; XRPD); assay type: physicochemical; conditions: for XRPD result after stirring: RT, 4 d
Description: Based on experimental conditions to generate Material B and its drying studies, without being bound to any theory, Material B could be a solvated material which can convert to Material C upon drying.
In order to evaluate the relative stability between Form A and Material C, a competitive slurry was performed. About equal amounts (by mass) of Material C (mixture w/some Form A) and Form A were added to acetone so that solids persisted and were stirred at room temperature for 9 days. Solids were isolated by centrifugation using Spin-X centrifuge tubes equipped with a 0.45 μm nylon filter. Beige solids were observed. […] Material C could be an anhydrous material.
Further analyses including ^1H NMR and TGA were also collected on this amorphous sample (Table 10). The ^1H NMR spectrum was consistent with the chemical structure of Compound I and contains trace amount of DCM. By TGA (FIG. 9), about 1.0 wt % loss is observed from 45-200° C., which is likely due to the residual DCM and moisture in the material. The dramatic change in the slope of the TGA thermogram starting at 280° C. (onset) is likely associated with the decomposition of the material. […] A repeated rotary evaporation attempt from DCM solution generated disordered Compound I Form A (FIG. 7, second spectrum from bottom) after the sample was secondary dried at ambient temperature under vacuum for 3 days, which provides further evidence that amorphous Compound I is not physically stable.
Crystallization studies were performed on this disordered material (Table 10) and solids were stirred in acetone and H2O for 4 days at ambient conditions. Both experiments generated crystalline Form A (FIG. 10, bottom two spectra).

[2] = tested on: Androgen-induced PSA-luciferase activity; experiment: Androgen-induced PSA (6.1 kb)-luciferase reporter assay in transiently transfected LNCaP cells; assay type: cell-based; conditions: Homo sapiens, R1881 1 nM, 24 h
Description: To determine the IC50, treatments were normalized to the maximum activity with androgen-induction (in the absence of test compounds, vehicle only) (Table 12).
Luciferase Assay: Lysates were thawed on ice then collected into V-bottom 96-well tissue culture plates. Lysates were centrifuged at 4° C. for 5 minutes at 4000 rpm. To measure luminescence of LNCaP cell lysates the Firefly Luciferase Assay System (Promega) was employed, according to manufacturer's protocol.
Comparisons between treatment and control groups were compared using Two-Way ANOVA with post-hoc Dunnett's and Tukey's tests. Differences were considered statistically significant at P values less than 0.05. Densitometric quantification of relative AR levels was determined by Image.

[3] = Approximate solubility by solvent aliquot addition, visual inspection; assay type: physicochemical; conditions: organic solvent or mixture, thermodynamic from solid
Description: The approximate solubility of Compound I in various organic solvents was determined by adding solvent aliquots to weighed samples Compound I. Weighed samples of Compound I were treated with aliquots of the test solvents or solvent mixtures at ambient temperature. Complete dissolution of the test material was determined by visual inspection. Solubility was estimated based on the total solvent volume used to provide complete dissolution. The actual solubility may be greater than the value calculated because of the use of solvent aliquots that were too large or due to a slow rate of dissolution. If complete dissolution was not achieved during the experiment, the solubility is expressed as “less than” (<). If complete dissolution was achieved by only one aliquot addition, the value is reported as “larger than” (>).

[4] = Equilibrium solubility acquired at 24 hours; assay type: physicochemical; conditions: organic solvent or mixture, thermodynamic from solid
[5] = Amorphous solubility by slow addition from organic stock into aqueous media (UV/Vis scattering, DLS); assay type: physicochemical; conditions: for solubility: kinetic from dmso stock
Source text: Solubility: Generally, the solubility of an amorphous form is higher than that of the corresponding crystal form, due to the lack of crystalline lattice forces in the amorphous state. Solubility of the amorphous form of Compound I was studied by slow addition of the amorphous form from an organic stock solution into the pH 6.5 phosphate-buffered saline (PBS) solution or 0.5% wt simulated intestinal fluid (SIF) in pH 6.5 PBS. When the amorphous solubility is reached, a drug-rich phase forms which typically scatters light (e.g., liquid-liquid phase separation or LLPS), which can be detected by scattering of UV/Visible light and/or by dynamic light scattering (DLS).
No scattering event prior to crystallization was observed.

[6] = Dynamic vapor sorption (DVS) analysis; assay type: physicochemical; parameters: Hysteresis: unit not given here
Description: In one embodiment, the crystalline forms are characterized by Dynamic Vapor Sorption (DVS). The DVS profile is typically expressed by a diagram plotting the sample relative humidity (RH) versus the change in mass (%). The DVS profile provides information on hygroscopicity of the crystalline form at different RH conditions.
DVS (dynamic vapor sorption) analysis was carried out on Form A (Table 2, FIG. 3).

[7] = target RH 95.0 %, sample RH 96.0 %

## CC(C)(c1ccc(OCc2ccnc(NS(C)(=O)=O)n2)cc1)c1cc(Cl)c(OCCCl)c(C#N)c1 [Material D]
[1]; 50-52° C., vacuum, 3 d
  XRPD result after drying: desolvate into Form A

## CC(C)(c1ccc(OC[C@H](O)CNS(C)(=O)=O)cc1)c1cc(Cl)c(OC[C@H](O)CCl)c(Cl)c1 [Reference Compound X]
[2]
  IC50: 1.05 µM

## CC(C)(c1ccc(OCc2ccnc(NS(C)(=O)=O)n2)cc1)c1cc(Cl)c(OCCCl)c(C#N)c1 [Compound I, N-{4-[(4-{2-[3-chloro-4-(2-chloroethoxy)-5-cyanophenyl]propan-2-yl}phenoxy)methyl]pyrimidin-2-yl}methanesulfonamide]
[3]; dioxane (printed 'dioxant'), dioxant, ambient temperature, read-out: Solubility
  solubility: > 107000 µg/mL
[3]; DCM, ambient temperature, read-out: Solubility
  solubility: 20000 µg/mL (≈ 37.4 mM)
[3]; DMA, ambient temperature, read-out: Solubility
  solubility: > 79000 µg/mL
[3]; Et2O, ambient temperature, read-out: Solubility
  solubility: < 2000 µg/mL
[3]; MEK, ambient temperature, read-out: Solubility
  solubility: 6000 µg/mL (≈ 11.2 mM)
[3]; MTBE, ambient temperature, read-out: Solubility
  solubility: < 1000 µg/mL
[3]; NMP, ambient temperature, read-out: Solubility
  solubility: > 117000 µg/mL
[3]; THF, ambient temperature, read-out: Solubility
  solubility: 54000 µg/mL (≈ 101 mM)
[3]; iPrOAc, ambient temperature, read-out: Solubility
  solubility: < 1000 µg/mL
[3]; p-dioxane, from observations on samples at much larger scales, read-out: Approximate solubility
  solubility: 35000 to 103000 µg/mL (≈ 65.4 to 192 mM)
[3]; toluene, ambient temperature, read-out: Solubility
  solubility: 1000 µg/mL (≈ 1.87 mM)
[2]
  IC50: 0.535 µM
[4]; ACN
  solubility at 24 h: 2040 µg/mL (≈ 3.81 mM)
[4]; DMSO
  solubility at 24 h: > 12000 µg/mL
[4]; EtOAc
  solubility at 24 h: 1970 µg/mL (≈ 3.68 mM)
[4]; EtOH
  solubility at 24 h: 170 µg/mL (≈ 0.317 mM)
[4]; MeOH
  solubility at 24 h: 210 µg/mL (≈ 0.392 mM)
[4]; acetone
  solubility at 24 h: 5300 µg/mL (≈ 9.9 mM)
[5]
  Crystalline solubility: very low

## CC(C)(c1ccc(OCc2ccnc(NS(C)(=O)=O)n2)cc1)c1cc(Cl)c(OCCCl)c(C#N)c1 [Material B]
[1]
  Stability upon drying: unstable upon drying
[1]; 65-66° C., vacuum, 5 d
  XRPD result after drying: mixture of Form A and Material C
[1]; RT (ambient), on filter paper, 3 d
  XRPD result after drying: disordered Material C

## CC(O)(CS(=O)(=O)c1ccc(F)cc1)C(=O)Nc1ccc(C#N)c(C(F)(F)F)c1 (stereo not drawn) [Bicalutamide]
[2]
  IC50: 0.306 µM

## CC(C)(c1ccc(OCc2ccnc(NS(C)(=O)=O)n2)cc1)c1cc(Cl)c(OCCCl)c(C#N)c1 [Disordered]
[1]; H2O
  XRPD result after stirring: Form A
[1]; acetone
  XRPD result after stirring: Form A

## CC(C)(c1ccc(OCc2ccnc(NS(C)(=O)=O)n2)cc1)c1cc(Cl)c(OCCCl)c(C#N)c1 [amorphous form of Compound I]
[1]; ambient (RT), desiccator, about 10 days
  XRPD result after storage: disordered Form A
[1]; ambient temperature
  Physical stability: physically not stable
[5]; 0.5% wt simulated intestinal fluid in PBS, fassgf or other biorelevant, 0.5% SIF (pH 6.5)
  solubility: > 25 µg/mL
[5]; phosphate-buffered saline, aqueous buffer, pH 6.5 PBS
  solubility: > 2.5 µg/mL
[5]; simulated intestinal media
  Amorphous solubility relative to crystalline solubility: at least 20 ×

## CC(C)(c1ccc(OCc2ccnc(NS(C)(=O)=O)n2)cc1)c1cc(Cl)c(OCCCl)c(C#N)c1 [Form A, N-{4-[(4-{2-[3-chloro-4-(2-chloroethoxy)-5-cyanophenyl]propan-2-yl}phenoxy)methyl]pyrimidin-2-yl}methanesulfonamide]
[1]; Material C (with some Form A) and Form A in acetone, room temperature, 9 days
  Relative stability, competitive slurry: more stable than Material C
[6]; after DVS cycle
  Solids recovered after DVS analysis, by XRPD: consistent with Form A
[6]; from 5% to 95% RH
  Total weight gain during sorption: 5.474%
[6]; from 55% to 85% RH
  Weight gain during sorption: 1.978 wt %
[6]; from 85% RH to 95% RH
  Weight gain during sorption: 3.106 wt %
[6]; from 95% RH to 5% RH
  Weight loss during desorption: 5.472%
[6]; target RH 5.0 %, sample RH 4.9 %
  Sorp Mass Change: 0.000%
[6]; target RH 5.0 %, sample RH 5.4 %
  Desorp Mass Change: 0.002%
[6]; target RH 15.0 %
  Hysteresis: 0.013
[6]; target RH 15.0 %, sample RH 15.4 %
  Sorp Mass Change: 0.055%
[6]; target RH 15.0 %, sample RH 16.1 %
  Desorp Mass Change: 0.060%
[6]; target RH 25.0 %
  Hysteresis: 0.036
[6]; target RH 25.0 %, sample RH 24.9 %
  Sorp Mass Change: 0.111%
[6]; target RH 25.0 %, sample RH 25.6 %
  Desorp Mass Change: 0.146%
[6]; target RH 45.0 %
  Hysteresis: 0.474
[6]; target RH 45.0 %, sample RH 44.8 %
  Sorp Mass Change: 0.242%
[6]; target RH 45.0 %, sample RH 45.6 %
  Desorp Mass Change: 0.716%
[6]; target RH 55.0 %
  Hysteresis: 0.650
[6]; target RH 55.0 %, sample RH 54.5 %
  Sorp Mass Change: 0.390%
[6]; target RH 55.0 %, sample RH 55.5 %
  Desorp Mass Change: 1.040%
[6]; target RH 65.0 %
  Hysteresis: 0.452
[6]; target RH 65.0 %, sample RH 65.6 %
  Desorp Mass Change: 1.438%
[6]; target RH 65.0 %, sample RH […]
  Sorp Mass Change: 0.906%
[6]; target RH 75.0 %
  Hysteresis: 0.364
[6]; target RH 75.0 %, sample RH 74.5 %
  Sorp Mass Change: 1.567%
[6]; target RH 75.0 %, sample RH 75.5 %
  Desorp Mass Change: 1.931%
[6]; target RH 85.0 %
  Hysteresis: 0.604
[6]; target RH 85.0 %, sample RH 84.7 %
  Sorp Mass Change: 2.368%
[6]; target RH 85.0 %, sample RH 85.8 %
  Desorp Mass Change: 2.072%
[6]; [7]
  Desorp Mass Change: 5.474%
  Sorp Mass Change: 5.474%
[6]; target RH […]
  Hysteresis: 0.108
[6]; target RH […], sample RH 34.5 %
  Sorp Mass Change: 0.169%
[6]; target RH […], sample RH 35.3 %
  Desorp Mass Change: 0.277%
[6]; within 5%-55% RH
  Hygroscopicity: low hygroscopicity
[6]; within 55%-85% RH
  Hygroscopicity: limited hygroscopicity
[6]; within 85%-95% RH
  Hygroscopicity: significant hygroscopicity
